Measured values: ChEMBL document CHEMBL4138236, “Trisubstituted barbiturates and thiobarbiturates: Synthesis and biological evaluation as xanthine oxidase inhibitors, antioxidants, antibacterial and anti-proliferative agents” (Eur J Med Chem, 2018)

System: Klebsiella pneumoniae
Test: Antibacterial activity against Klebsiella pneumoniae ATCC 13883 after 24 hrs by broth microdilution method
Format: functional
Settings: ATCC 13883, 24 h
For O=C1NC(=O)C(=Cc2ccccc2[N+](=O)[O-])C(=O)N1, the MIC was > 200 µM.
In the case of NC(=O)NC=C1C(=O)NC(=S)NC1=O, the MIC is reported as > 200 µM.
With CC(NNc1ccc([N+](=O)[O-])cc1[N+](=O)[O-])=C1C(=O)N(C)C(=O)N(C)C1=O the MIC was > 200 µM.
In the case of CN1C(=O)C(=CNC(N)=O)C(=O)N(C)C1=O, the MIC is reported as > 200 µM.
With O=C1C(=Cc2ccccc2[N+](=O)[O-])C(=O)N(c2ccccc2)C(=S)N1c1ccccc1 the MIC was > 200 µM.
In the case of N#CC(c1ccc(Br)cc1)c1c([O-])[nH]c(=S)[nH]c1=O.[Na+] (configuration not stated), the MIC is reported as > 200 µM.
With O=C1NC(=S)NC(=O)C1=CNc1ccccc1[N+](=O)[O-] the MIC was > 200 µM.

System: not listed separately
Test: Antioxidant activity assessed as DPPH radical scavenging activity at 30 uM after 20 mins by spectrophotometric method relative to control
Format: functional
Settings: not given
With O=C1NC(=O)C(=Cc2ccccc2[N+](=O)[O-])C(=O)N1 the Activity was -0.9%.
In the case of NC(=O)NC=C1C(=O)NC(=S)NC1=O, the Activity is reported as 5.26%.
With CC(NNc1ccc([N+](=O)[O-])cc1[N+](=O)[O-])=C1C(=O)N(C)C(=O)N(C)C1=O the Activity was 28%.
Molecule CN1C(=O)C(=CNC(N)=O)C(=O)N(C)C1=O has an Activity of 2.1%.
In the case of O=C1C(=Cc2ccccc2[N+](=O)[O-])C(=O)N(c2ccccc2)C(=S)N1c1ccccc1, the Activity is reported as 9%.
Molecule N#CC(c1ccc(Br)cc1)c1c([O-])[nH]c(=S)[nH]c1=O.[Na+] (configuration not stated) has an Activity of -9.22%.
For O=C1NC(=S)NC(=O)C1=CNc1ccccc1[N+](=O)[O-], the Activity was -12.5%.

System: Salmonella typhimurium
Test: Antibacterial activity against Salmonella typhimurium ATCC 13311 after 24 hrs by broth microdilution method
Format: functional, Salmonella enterica subsp. enterica serovar Typhimurium
Settings: Salmonella enterica, ATCC 13311, 24 h
In the case of O=C1NC(=O)C(=Cc2ccccc2[N+](=O)[O-])C(=O)N1, the MIC is reported as > 200 µM.
For NC(=O)NC=C1C(=O)NC(=S)NC1=O, the MIC was > 200 µM.
With CC(NNc1ccc([N+](=O)[O-])cc1[N+](=O)[O-])=C1C(=O)N(C)C(=O)N(C)C1=O the MIC was > 200 µM.
In the case of CN1C(=O)C(=CNC(N)=O)C(=O)N(C)C1=O, the MIC is reported as > 200 µM.
For O=C1C(=Cc2ccccc2[N+](=O)[O-])C(=O)N(c2ccccc2)C(=S)N1c1ccccc1, the MIC was > 200 µM.
In the case of N#CC(c1ccc(Br)cc1)c1c([O-])[nH]c(=S)[nH]c1=O.[Na+] (configuration not stated), the MIC is reported as > 200 µM.
For O=C1NC(=S)NC(=O)C1=CNc1ccccc1[N+](=O)[O-], the MIC was > 200 µM.

System: Staphylococcus aureus
Test: Antibacterial activity against Staphylococcus aureus ATCC 25923 after 24 hrs by broth microdilution method
Format: functional
Settings: ATCC 25923, 24 h
With O=C1NC(=O)C(=Cc2ccccc2[N+](=O)[O-])C(=O)N1 the MIC was > 200 µM.
In the case of NC(=O)NC=C1C(=O)NC(=S)NC1=O, the MIC is reported as > 200 µM.
In the case of CC(NNc1ccc([N+](=O)[O-])cc1[N+](=O)[O-])=C1C(=O)N(C)C(=O)N(C)C1=O, the MIC is reported as > 200 µM.
For CN1C(=O)C(=CNC(N)=O)C(=O)N(C)C1=O, the MIC was > 200 µM.
In the case of O=C1C(=Cc2ccccc2[N+](=O)[O-])C(=O)N(c2ccccc2)C(=S)N1c1ccccc1, the MIC is reported as > 200 µM.
For N#CC(c1ccc(Br)cc1)c1c([O-])[nH]c(=S)[nH]c1=O.[Na+] (configuration not stated), the MIC was > 200 µM.
With O=C1NC(=S)NC(=O)C1=CNc1ccccc1[N+](=O)[O-] the MIC was > 200 µM.

System: Pseudomonas aeruginosa
Test: Antibacterial activity against Pseudomonas aeruginosa ATCC 27853 after 24 hrs by broth microdilution method
Format: functional
Settings: ATCC 27853, 24 h
In the case of O=C1NC(=O)C(=Cc2ccccc2[N+](=O)[O-])C(=O)N1, the MIC is reported as > 200 µM.
With NC(=O)NC=C1C(=O)NC(=S)NC1=O the MIC was > 200 µM.
For CC(NNc1ccc([N+](=O)[O-])cc1[N+](=O)[O-])=C1C(=O)N(C)C(=O)N(C)C1=O, the MIC was > 200 µM.
In the case of CN1C(=O)C(=CNC(N)=O)C(=O)N(C)C1=O, the MIC is reported as > 200 µM.
For O=C1C(=Cc2ccccc2[N+](=O)[O-])C(=O)N(c2ccccc2)C(=S)N1c1ccccc1, the MIC was > 200 µM.
For N#CC(c1ccc(Br)cc1)c1c([O-])[nH]c(=S)[nH]c1=O.[Na+] (configuration not stated), the MIC was > 200 µM.
In the case of O=C1NC(=S)NC(=O)C1=CNc1ccccc1[N+](=O)[O-], the MIC is reported as > 200 µM.

System: not listed separately
Test: Antioxidant activity assessed as DPPH radical scavenging activity at 30 uM after 60 mins by spectrophotometric method relative to control
Format: functional
Settings: not given
O=C1NC(=O)C(=Cc2ccccc2[N+](=O)[O-])C(=O)N1 gave an Activity of -0.78%.
With NC(=O)NC=C1C(=O)NC(=S)NC1=O the Activity was 5.6%.
For CC(NNc1ccc([N+](=O)[O-])cc1[N+](=O)[O-])=C1C(=O)N(C)C(=O)N(C)C1=O, the Activity was 26.7%.
Molecule CN1C(=O)C(=CNC(N)=O)C(=O)N(C)C1=O has an Activity of 2.91%.
In the case of O=C1C(=Cc2ccccc2[N+](=O)[O-])C(=O)N(c2ccccc2)C(=S)N1c1ccccc1, the Activity is reported as 11.3%.
With N#CC(c1ccc(Br)cc1)c1c([O-])[nH]c(=S)[nH]c1=O.[Na+] (configuration not stated) the Activity was -8.33%.
Work on O=C1NC(=S)NC(=O)C1=CNc1ccccc1[N+](=O)[O-] yielded an Activity of -11.8%.

System: Escherichia coli
Test: Antibacterial activity against Escherichia coli ATCC 25922 after 24 hrs by broth microdilution method
Format: functional
Settings: ATCC 25922, 24 h
With O=C1NC(=O)C(=Cc2ccccc2[N+](=O)[O-])C(=O)N1 the MIC was > 200 µM.
In the case of NC(=O)NC=C1C(=O)NC(=S)NC1=O, the MIC is reported as > 200 µM.
With CC(NNc1ccc([N+](=O)[O-])cc1[N+](=O)[O-])=C1C(=O)N(C)C(=O)N(C)C1=O the MIC was > 200 µM.
In the case of CN1C(=O)C(=CNC(N)=O)C(=O)N(C)C1=O, the MIC is reported as > 200 µM.
With O=C1C(=Cc2ccccc2[N+](=O)[O-])C(=O)N(c2ccccc2)C(=S)N1c1ccccc1 the MIC was > 200 µM.
With N#CC(c1ccc(Br)cc1)c1c([O-])[nH]c(=S)[nH]c1=O.[Na+] (configuration not stated) the MIC was > 200 µM.
In the case of O=C1NC(=S)NC(=O)C1=CNc1ccccc1[N+](=O)[O-], the MIC is reported as > 200 µM.

System: MCF7
Test: Antiproliferative activity against human MCF7 cells at 30 uM after 72 hrs by MTT assay relative to control
Format: functional
Settings: not given
Molecule O=C1NC(=O)C(=Cc2ccccc2[N+](=O)[O-])C(=O)N1 has an Activity of 58.88%.
NC(=O)NC=C1C(=O)NC(=S)NC1=O gave an Activity of 104.66%.
CC(NNc1ccc([N+](=O)[O-])cc1[N+](=O)[O-])=C1C(=O)N(C)C(=O)N(C)C1=O gave an Activity of 69.95%.
CN1C(=O)C(=CNC(N)=O)C(=O)N(C)C1=O gave an Activity of 97.13%.
O=C1C(=Cc2ccccc2[N+](=O)[O-])C(=O)N(c2ccccc2)C(=S)N1c1ccccc1 gave an Activity of 67.93%.
Molecule N#CC(c1ccc(Br)cc1)c1c([O-])[nH]c(=S)[nH]c1=O.[Na+] (configuration not stated) has an Activity of 90.08%.
In the case of O=C1NC(=S)NC(=O)C1=CNc1ccccc1[N+](=O)[O-], the Activity is reported as 80.23%.

System: Bacillus cereus
Test: Antibacterial activity against Bacillus cereus ATCC 1178 after 24 hrs by broth microdilution method
Format: functional
Settings: ATCC 1178, 24 h
With O=C1NC(=O)C(=Cc2ccccc2[N+](=O)[O-])C(=O)N1 the MIC was > 200 µM.
With NC(=O)NC=C1C(=O)NC(=S)NC1=O the MIC was > 200 µM.
For CC(NNc1ccc([N+](=O)[O-])cc1[N+](=O)[O-])=C1C(=O)N(C)C(=O)N(C)C1=O, the MIC was > 200 µM.
With CN1C(=O)C(=CNC(N)=O)C(=O)N(C)C1=O the MIC was > 200 µM.
For O=C1C(=Cc2ccccc2[N+](=O)[O-])C(=O)N(c2ccccc2)C(=S)N1c1ccccc1, the MIC was > 200 µM.
For N#CC(c1ccc(Br)cc1)c1c([O-])[nH]c(=S)[nH]c1=O.[Na+] (configuration not stated), the MIC was > 200 µM.
In the case of O=C1NC(=S)NC(=O)C1=CNc1ccccc1[N+](=O)[O-], the MIC is reported as > 200 µM.

System: Acinetobacter baumannii
Test: Antibacterial activity against Acinetobacter baumannii LMG 1025 after 24 hrs by broth microdilution method
Format: functional
Settings: LMG 1025, 24 h
In the case of O=C1NC(=O)C(=Cc2ccccc2[N+](=O)[O-])C(=O)N1, the MIC is reported as > 200 µM.
For NC(=O)NC=C1C(=O)NC(=S)NC1=O, the MIC was > 200 µM.
With CC(NNc1ccc([N+](=O)[O-])cc1[N+](=O)[O-])=C1C(=O)N(C)C(=O)N(C)C1=O the MIC was > 200 µM.
With CN1C(=O)C(=CNC(N)=O)C(=O)N(C)C1=O the MIC was > 200 µM.
For O=C1C(=Cc2ccccc2[N+](=O)[O-])C(=O)N(c2ccccc2)C(=S)N1c1ccccc1, the MIC was > 200 µM.
With N#CC(c1ccc(Br)cc1)c1c([O-])[nH]c(=S)[nH]c1=O.[Na+] (configuration not stated) the MIC was > 200 µM.
With O=C1NC(=S)NC(=O)C1=CNc1ccccc1[N+](=O)[O-] the MIC was > 200 µM.

System: NHDF
Test: Antiproliferative activity against NHDF at 30 uM after 72 hrs by MTT assay relative to control
Format: cell-based
Settings: human
O=C1NC(=O)C(=Cc2ccccc2[N+](=O)[O-])C(=O)N1 gave an Activity of 72.88%.
With NC(=O)NC=C1C(=O)NC(=S)NC1=O the Activity was 74.57%.
For CC(NNc1ccc([N+](=O)[O-])cc1[N+](=O)[O-])=C1C(=O)N(C)C(=O)N(C)C1=O, the Activity was 73.63%.
With CN1C(=O)C(=CNC(N)=O)C(=O)N(C)C1=O the Activity was 86.84%.
Molecule O=C1C(=Cc2ccccc2[N+](=O)[O-])C(=O)N(c2ccccc2)C(=S)N1c1ccccc1 has an Activity of 77.56%.
For N#CC(c1ccc(Br)cc1)c1c([O-])[nH]c(=S)[nH]c1=O.[Na+] (configuration not stated), the Activity was 89.93%.
O=C1NC(=S)NC(=O)C1=CNc1ccccc1[N+](=O)[O-] gave an Activity of 78.75%.
